“Also recorded” adds a separate entry of the source. Where two headings read alike, the source gives them in different places.
Tests used:
[1] = system: breast cancer line, MCF-7; assay: Inhibition of growth of breast cancer line MCF-7, single agents, 7 days; format: cell-based; conditions: for Inhibition of MCF-7 growth (in words): individual doses, 7 days (FIG. 6C); for Sensitivity of MCF-7 compared with U373 (in words): single agents, 7 days (FIG. 6C vs 6B)
Source text: (§1) To determine whether there is tumor type specificity of the inhibitory properties of PP2A inhibitors, retinoic acid and Trichostatin A, we measured their inhibitory effects as single agents against the GBM line U373, a breast cancer line, MCF-7 (obtained from ATCC) and a kidney cancer cell line, UMRC (UMRC obtained by Dr. Zhuang, NINDS, NIH from the Intramural Research Support Program, SAIC, National Cancer Institute, Frederick Cancer Research and Development Center).

[2] = system: kidney cancer cell line, UMRC; assay: Inhibition of growth of kidney cancer cell line UMRC, single agents, 7 days; format: cell-based; conditions: 7 days (FIG. 6A vs 6B)
Source text: as §1

GBM cell line U373 = assay: cells; format: cell-based, human; conditions: for Inhibition of U373 growth as single agent (in words): individual treatment, 7 days; for Concentration range of activity against U373 (in words): single agent (FIG. 5A, 5B)
Protocol: To identify novel therapeutic targets for the treatment of glioblastoma multiforme (GBM), cantharidin analogs were evaluated for their ability to inhibit growth of glioblastoma multiforme cells. Specifically, GBM cell line U373 was used in evaluations.
The total number of cells is counted in the triplicate cultures at each dose and in controls after 7 days and the average number of cells and the standard deviation is determined.
The amount of inhibition of GBM cell growth is expressed as the proportion of the number of cells in the experimental dishes compared to the number of cells in control dishes containing only the drug vehicle and culture medium. The average percent of control is plotted and bracketed by one standard deviation calculated from the triplicate measurements.

PP2A = conditions: cited from earlier work
PP1 = conditions: cited from earlier work
[3] = cited from earlier work; for Urinary tract toxicity (in words): in vivo
primary hepatoma = conditions: cited from earlier work
[4] = system: white blood cell production; conditions: patients and mice; cited from earlier work
GBM cell line U343 MG-A = assay: Growth of GBM cell line U343 MG-A, cell counts over 16 days; format: cell-based, human; conditions: 50 μM retinoic acid and/or 10 nM okadaic acid
Protocol: Finally, the GBM cell line U343 MG-A was treated with 50 μM of retinoic acid (RA) and/or 10 nM of okadaic acid (OA), a protein phosphatase-1 inhibitor.
Three cultures for each of four treatments were grown for 16 days with cell counts obtained at baseline and for each of the eight even numbered days. Log transformations were applied to the cell counts, and repeated measures of analysis of variance model used to evaluate the treatment differences over time. Pair wise treatment comparisons used Sidak's statistic to account for multiple testing.

[5] = for weeks; cited from earlier work
[6] = system: brain tumor stem cells (BTSC) isolated from GBM; assay: Differentiation of cultured brain tumor stem cells treated with CNTF (GFAP expression, N-CoR localization); format: cell-based
Protocol: (Hughes et al. (1988)) The BTSCs cells were then assessed for GFAP expression along with subcellular N—CoR localization.

[7] = Homo sapiens, U373 MG, 168 h, read-out: IC50, concentration that inhibited brain tumor cell proliferation by 50%
[8] = U373, 7 days exposure, estimated from graphic plots (FIG. 3), read-out: IC50, concentration that inhibited brain tumor cell proliferation by 50%

## CC1=C(/C=C/C(C)=C/C=C/C(C)=C/C(=O)O)C(C)(C)CCC1 [ATRA, all-trans retinoic acid]
[1]
  Inhibition of MCF-7 growth (in words): showed an inhibition in growth
  Sensitivity of MCF-7 compared with U373 (in words): as sensitive as U373
[2]
  Sensitivity of UMRC compared with U373 (in words): less sensitive
GBM cell line U373; Homo sapiens, U373 MG, 168 h, U373, 7 days (FIG. 4A), read-out: IC50 of ATRA alone
  IC50: > 50 µM
GBM cell line U373; Homo sapiens, U373 MG, U373, ATRA 25 uM alone, read-out: Percent of Control, Observed
  activity at 25 µM: 77%
GBM cell line U373; U373
  Inhibition of U373 growth as single agent (in words): modest inhibition of growth

## CC1=C(/C=C/C(C)=C/C=C/C(C)=C\C(=O)O)C(C)(C)CCC1 [Cis-RA, 13-cis retinoic acid]
GBM cell line U373; U373, Cis-RA 50 μM alone
  Percent of Control, Observed: 93.3 +/− 2.2% of Control
GBM cell line U373; U373
  Inhibition of U373 growth as single agent (in words): modest inhibition of growth

## CC(/C=C/C(=O)NO)=C\[C@@H](C)C(=O)c1ccc(N(C)C)cc1 [TSA, Trichostatin A]
[1]
  Inhibition of MCF-7 growth (in words): showed an inhibition in growth
  Sensitivity of MCF-7 compared with U373 (in words): as sensitive as U373
[2]
  Sensitivity of UMRC compared with U373 (in words): less sensitive
GBM cell line U373; U373, TSA 0.033 μM (0.01 μg/ml) alone
  Percent of Control, Observed: 71.6 +/− 0.4% of Control
GBM cell line U373; U373
  Inhibition of U373 growth as single agent (in words): dose dependent activity
  Concentration range of activity against U373 (in words): active at nM concentrations

## C[C@@]12C(=O)OC(=O)[C@]1(C)[C@H]1CC[C@@H]2O1 [cantharidin]
PP2A
  Inhibition of PP2A activity (in words): inhibit the activity of PP2A
PP1
  Inhibition of PP1 activity (in words): to some extent
[3]
  Urinary tract toxicity (in words): toxic to the urinary tract

## CN1CCN(C(=O)C2C(C(=O)O)[C@H]3CC[C@@H]2O3)CC1 (stereo partly drawn) [compound LB-1]
GBM cell line U373; [7]
  IC50: 3 µM
GBM cell line U373; Homo sapiens, U373 MG, read-out: Percent of Control, Observed, U373, LB-1 1 uM alone (Table 1)
  activity at 1 µM: 78%
GBM cell line U373; U373, LB-1 1 μM alone (Table 3)
  Percent of Control, Observed: 97.9 +/− 1.0% of Control
GBM cell line U373; U373, LB-1 5 μM alone
  Percent of Control, Observed: 52.5 +/− 2.9% of Control
GBM cell line U373; U373
  Inhibition of U373 growth as single agent (in words): modest inhibition of growth

## O=C1SC(=O)[C@H]2[C@@H]1[C@@H]1CC[C@H]2O1 [endothal thioanhydride]
PP2A
  Inhibition of PP2A activity (in words): inhibit the activity of PP2A
PP1
  Inhibition of PP1 activity (in words): to some extent
[1]
  Sensitivity of MCF-7 compared with U373 (in words): as sensitive as U373
[2]
  Sensitivity of UMRC compared with U373 (in words): less sensitive
[3]; mice
  Liver toxicity (in words): toxic to the liver of mice
GBM cell line U373; [8]
  IC50: 2.5 µM
GBM cell line U373; U373
  Inhibition of U373 growth as single agent (in words): most potent inhibitor of GBMs in vitro; also recorded: greatest inhibition of growth

## O=C(O)C1C2CCC(O2)C1C(=O)O (stereo not drawn) [endothal]
PP2A
  Inhibition of PP2A activity (in words): inhibit the activity of PP2A
PP1
  Inhibition of PP1 activity (in words): to some extent
[1]
  Inhibition of MCF-7 growth (in words): showed an inhibition in growth
  Sensitivity of MCF-7 compared with U373 (in words): as sensitive as U373
[2]
  Sensitivity of UMRC compared with U373 (in words): less sensitive
GBM cell line U373; [7]
  IC50: 15 µM
GBM cell line U373; Homo sapiens, U373 MG, read-out: Percent of Control, U373, endothal 1 μM, 13-cis retinoic acid none
  activity at 1 µM: 100%
GBM cell line U373; Homo sapiens, U373 MG, read-out: Percent of Control, U373, endothal 5 μM, 13-cis retinoic acid none
  activity at 5 µM: 96%
GBM cell line U373; Homo sapiens, U373 MG, read-out: Percent of Control, U373, endothal 10 μM, 13-cis retinoic acid none
  activity at 10 µM: 76%
GBM cell line U373; U373, END 10 uM alone
  Percent of Control, Observed: 65%
GBM cell line U373; U373, endothal 10 μM, 13-cis retinoic acid none
  Percent of Control: 73%
GBM cell line U373; U373
  Inhibition of U373 growth as single agent (in words): modest inhibition of growth

## O=C1OC(=O)[C@H]2[C@@H]1[C@H]1CC[C@H]2O1 [norcantharidin]
Primary hepatoma; 244 patients with primary hepatoma, historical controls 17%
  1-year survival: 30%
Primary hepatoma; 244 patients, historical controls on standard chemotherapy 4.7 months
  Life span of patients with primary hepatoma: 11.1 months
[4]
  White blood cell production (in words): stimulates white blood cell production
[1]
  Sensitivity of MCF-7 compared with U373 (in words): as sensitive as U373
[2]
  Sensitivity of UMRC compared with U373 (in words): less sensitive
[3]; compared among endothal thioanhydride, norcantharidin, endothal
  Relative toxicity in vivo (in words): falling in between
[3]
  Urinary tract toxicity (in words): little or no urinary tract toxicity
GBM cell line U373; [8]
  IC50: 12 µM

## C=C1[C@@H](O)[C@@H]2O[C@]3(CC[C@H](/C=C/[C@@H](C)[C@@H]4CC(C)=C[C@@]5(O[C@H](C[C@@](C)(O)C(=O)O)CC[C@H]5O)O4)O3)CC[C@H]2O[C@@H]1[C@@H](O)C[C@H](C)[C@H]1O[C@@]2(CCCCO2)CC[C@H]1C [okadaic acid]
GBM cell line U343 MG-A; 16 days
  Course of cell counts over time (in words): monotonically increased
GBM cell line U343 MG-A; 16 days (FIG. 2C)
  Effect on cell growth (in words): modest effect on cell growth

## CCCC(CCC)C(=O)O [valproic acid]
[5]
  Serum concentration tolerated in humans: ~1.0 mM
GBM cell line U373; U373
  Inhibition of U373 growth as single agent (in words): dose dependent activity
  Concentration range of activity against U373 (in words): in the mM range

B1: CNTF: ciliary neurotrophic factor, agent shown to induce astrocytic differentiation of neural stem cells in vitro (protein, UniProt P26441 1-200, looked up)
Ciliary neurotrophic factor: MAFTEHSPLTPHRRDLCSRSIWLARKIRSDLTALTESYVKHQGLNKNINLDSADGMPVASTDQWSELTEAERLQENLQAYRTFHVLLARLLEDQQVHFTPTEGDFHQAIHTLLLQVAAFAYQIEELMILLEYKIPRNEADGMPINVGDGGLFEKKLWGLKVLQELSQWTVRSIHDLRFISSHQTGIPARGSHYIANNKKM
[6]; BTSC cultured with CNTF, 2-DGE and LCMS (FIG. 2A)
  GFAP expression in BTSC (in words): began to express GFAP
[6]; Western blot of cytoplasmic fraction of CNTF-treated BTSC (FIG. 2B)
  Subcellular localization of N-CoR in BTSC (in words): translocation of N—CoR to the cytoplasm
[6]; following CNTF stimulation
  Time of peak cytoplasmic N-CoR and GFAP expression: 7 days
